According to ChEMBL document CHEMBL3132854, “Synthesis and anticancer activity evaluation of resveratrolchalcone conjugates” (2014):

Key:
HL-60(TB) = assay: Growth inhibition of human HL-60(TB) cells assessed as cell growth at 10 uM by sulforhodamine B assay relative to control; format: functional; conditions: values are per cent of control
CCRF-CEM = assay: Growth inhibition of human CCRF-CEM cells assessed as cell growth at 10 uM by sulforhodamine B assay relative to control; format: functional; conditions: values are per cent of control
M14 = assay: Growth inhibition of human M14 cells assessed as cell growth at 10 uM by sulforhodamine B assay relative to control; values are per cent of control
T47D = assay: Growth inhibition of human T47D cells assessed as cell growth at 10 uM by sulforhodamine B assay relative to control; values are per cent of control
MCF7 = assay: Growth inhibition of human MCF7 cells assessed as cell growth at 10 uM by sulforhodamine B assay relative to control; values are per cent of control
[1] = Growth inhibition of human UO31 cells assessed as cell growth at 10 uM by sulforhodamine B assay relative to control; values are per cent of control; conditions: UO-31
ACHN = assay: Growth inhibition of human ACHN cells assessed as cell growth at 10 uM by sulforhodamine B assay relative to control; values are per cent of control
A498 = assay: Growth inhibition of human A498 cells assessed as cell growth at 10 uM by sulforhodamine B assay relative to control; values are per cent of control
U-251 = assay: Growth inhibition of human U251 cells assessed as cell growth at 10 uM by sulforhodamine B assay relative to control; values are per cent of control
KM12 = assay: Growth inhibition of human KM12 cells assessed as cell growth at 10 uM by sulforhodamine B assay relative to control; values are per cent of control
DU-145 = assay: Growth inhibition of human DU145 cells assessed as cell growth at 10 uM by sulforhodamine B assay relative to control; values are per cent of control
786-0 = assay: Growth inhibition of human 786-0 cells assessed as cell growth at 10 uM by sulforhodamine B assay relative to control; values are per cent of control
SK-OV-3 = assay: Growth inhibition of human SKOV3 cells assessed as cell growth at 10 uM by sulforhodamine B assay relative to control; values are per cent of control
SF-268 = assay: Growth inhibition of human SF268 cells assessed as cell growth at 10 uM by sulforhodamine B assay relative to control; values are per cent of control
HT-29 = assay: Growth inhibition of human HT-29 cells assessed as cell growth at 10 uM by sulforhodamine B assay relative to control; values are per cent of control
HCT-15 = assay: Growth inhibition of human HCT15 cells assessed as cell growth at 10 uM by sulforhodamine B assay relative to control; values are per cent of control
[2] = Growth inhibition of human HOP92 cells assessed as cell growth at 10 uM by sulforhodamine B assay relative to control; values are per cent of control; conditions: HOP-92
MOLT-4 = assay: Growth inhibition of human MOLT4 cells assessed as cell growth at 10 uM by sulforhodamine B assay relative to control; values are per cent of control
[3] = Growth inhibition of human RXF393 cells assessed as cell growth at 10 uM by sulforhodamine B assay relative to control; values are per cent of control; conditions: RXF 393
[4] = Growth inhibition of human OVCAR5 cells assessed as cell growth at 10 uM by sulforhodamine B assay relative to control; values are per cent of control; conditions: OVCAR-5
OVCAR-3 = assay: Growth inhibition of human OVCAR3 cells assessed as cell growth at 10 uM by sulforhodamine B assay relative to control; values are per cent of control
[5] = Growth inhibition of human UACC257 cells assessed as cell growth at 10 uM by sulforhodamine B assay relative to control; values are per cent of control; conditions: UACC-257
LOX IMVI = assay: Growth inhibition of human LOXIMVI cells assessed as cell growth at 10 uM by sulforhodamine B assay relative to control; values are per cent of control
[6] = Growth inhibition of human HCC2998 cells assessed as cell growth at 10 uM by sulforhodamine B assay relative to control; values are per cent of control; conditions: HCC 2998
COLO 205 = assay: Growth inhibition of human COLO205 cells assessed as cell growth at 10 uM by sulforhodamine B assay relative to control; values are per cent of control
SK-MEL-5 = assay: Growth inhibition of human SK-MEL-5 cells assessed as cell growth at 10 uM by sulforhodamine B assay relative to control; values are per cent of control
Malme-3M = assay: Growth inhibition of human MALME-3M cells assessed as cell growth at 10 uM by sulforhodamine B assay relative to control; values are per cent of control
NCI-H522 = assay: Growth inhibition of human NCI-H522 cells assessed as cell growth at 10 uM by sulforhodamine B assay relative to control; values are per cent of control
NCI-H460 = assay: Growth inhibition of human NCI-H460 cells assessed as cell growth at 10 uM by sulforhodamine B assay relative to control; values are per cent of control
A549 = assay: Growth inhibition of human A549/ATCC cells assessed as cell growth at 10 uM by sulforhodamine B assay relative to control; values are per cent of control
IGROV-1 = assay: Growth inhibition of human IGROV1 cells assessed as cell growth at 10 uM by sulforhodamine B assay relative to control; values are per cent of control

Row | Structure (SMILES) | growth, % of control at 10 µM (HL-60(TB)) [%] | growth, % of control at 10 µM (CCRF-CEM) [%] | growth, % of control at 10 µM (M14) [%] | growth, % of control at 10 µM (T47D) [%] | growth, % of control at 10 µM (MCF7) [%] | growth, % of control at 10 µM [1] [%] | growth, % of control at 10 µM (ACHN) [%] | growth, % of control at 10 µM (A498) [%] | growth, % of control at 10 µM (U-251) [%] | growth, % of control at 10 µM (KM12) [%] | growth, % of control at 10 µM (DU-145) [%] | growth, % of control at 10 µM (786-0) [%] | growth, % of control at 10 µM (SK-OV-3) [%] | growth, % of control at 10 µM (SF-268) [%] | growth, % of control at 10 µM (HT-29) [%] | growth, % of control at 10 µM (HCT-15) [%] | growth, % of control at 10 µM [2] [%] | growth, % of control at 10 µM (MOLT-4) [%] | growth, % of control at 10 µM [3] [%] | growth, % of control at 10 µM [4] [%] | other results
1 | COc1ccc(/C=C/c2ccc(/C=C/C(=O)c3ccc(Cl)cc3)cc2)cc1 | 92.2 | 97.2 | 104 | 83.4 | 89.5 | 80.7 | 110 | 76 | 99.7 | 96.3 | 103 | 91 | 102 | 96.5 | 93 | 101 | 98.5 | 92.5 | 115 | 102 | growth, % of control at 10 µM (OVCAR-3): 101%; growth, % of control at 10 µM [5]: 101%; growth, % of control at 10 µM (LOX IMVI): 95%; growth, % of control at 10 µM [6]: 99.9%; growth, % of control at 10 µM (COLO 205): 111%; growth, % of control at 10 µM (SK-MEL-5): 107%; growth, % of control at 10 µM (Malme-3M): 103%; growth, % of control at 10 µM (NCI-H522): 106%; growth, % of control at 10 µM (NCI-H460): 101%; growth, % of control at 10 µM (A549): 91.8%
2 | COc1ccc(C(=O)/C=C/c2ccc(/C=C/c3ccc(F)cc3)cc2)cc1 | 101 | 104 | 95.2 | 93.8 | 93.9 | 94.4 | 102 | 87.5 | 100 | 104 | 109 | 95.3 | 99.1 | 113 | 104 | 102 | 108 | 96.2 | 117 | 102 | growth, % of control at 10 µM (OVCAR-3): 112%; growth, % of control at 10 µM (IGROV-1): 112%; growth, % of control at 10 µM [5]: 101%; growth, % of control at 10 µM (LOX IMVI): 97.4%; growth, % of control at 10 µM [6]: 94.1%; growth, % of control at 10 µM (COLO 205): 107%; growth, % of control at 10 µM (SK-MEL-5): 104%; growth, % of control at 10 µM (Malme-3M): 99.9%; growth, % of control at 10 µM (NCI-H522): 84%; growth, % of control at 10 µM (NCI-H460): 104%; growth, % of control at 10 µM (A549): 94.9%
3 | COc1ccc(C(=O)/C=C/c2ccc(/C=C/c3ccc(Cl)cc3)cc2)cc1 | 94.4 | 97.7 | 101 | 81.6 | 93 | 102 | 94.6 | 78.1 | 101 | 100 | 108 | 94 | 99.3 | 96.5 | 104 | 90.1 | 102 | 92.6 | 116 | 96.6 | growth, % of control at 10 µM (OVCAR-3): 101%; growth, % of control at 10 µM (IGROV-1): 95.7%; growth, % of control at 10 µM [5]: 100%; growth, % of control at 10 µM (LOX IMVI): 105%; growth, % of control at 10 µM [6]: 105%; growth, % of control at 10 µM (COLO 205): 107%; growth, % of control at 10 µM (SK-MEL-5): 106%; growth, % of control at 10 µM (Malme-3M): 87.4%; growth, % of control at 10 µM (NCI-H522): 125%; growth, % of control at 10 µM (NCI-H460): 102%; growth, % of control at 10 µM (A549): 100%
4 | COc1ccc(C(=O)/C=C/c2ccc(/C=C/c3cc(OC)c(OC)c(OC)c3)cc2)cc1 | 21.5 | 19.6 | 67 | 43.4 | 30.6 | 40.5 | 68.1 | 80 | 36.3 | 29.2 | 68.4 | 67.8 | 102 | 66.2 | 36.2 | 33.6 | 51.9 | 9.62 | 71.3 | 117 | growth, % of control at 10 µM (OVCAR-3): 41.4%; growth, % of control at 10 µM (IGROV-1): 6.66%; growth, % of control at 10 µM [5]: 72.5%; growth, % of control at 10 µM (LOX IMVI): 24.7%; growth, % of control at 10 µM [6]: 94.1%; growth, % of control at 10 µM (COLO 205): 68.2%; growth, % of control at 10 µM (SK-MEL-5): 62%; growth, % of control at 10 µM (Malme-3M): 66.8%; growth, % of control at 10 µM (NCI-H522): 5.55%; growth, % of control at 10 µM (NCI-H460): 59.6%; growth, % of control at 10 µM (A549): 36.4%
